Source: patent US10479780B2, “Aminopyrazole derivatives” (Chugai Seiyaku Kabushiki Kaisha, priority 2015, dated 2019)

How the values were obtained:
Type in all cases: biochemical
[1] = biological target: T1, human Lck enzyme (Homo sapiens, UniProt P06239); assay: Lck enzyme inhibitory activity (time-resolved fluorometry, biotinylated peptide phosphorylation); conditions: biotinylated peptide phosphorylation, read-out: LCK_IC50
T1 construct: purchased Carna Biosciences, Inc. 08-170
How it was run: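 Readout pairs a europium cryptate-labelled anti-phosphotyrosine antibody with XL665-streptavidin, measured by time-resolved fluorescence. IC50 derived from percent inhibition against untreated controls.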

[2] = biological target: T2, human Yes1 enzyme (Homo sapiens, UniProt P07947); assay: Yes1 enzyme inhibitory activity (time-resolved fluorometry, biotinylated peptide phosphorylation); conditions: biotinylated peptide phosphorylation, read-out: YES_IC50
T2 construct: made in house
T2 sequence (P07947 whole entry): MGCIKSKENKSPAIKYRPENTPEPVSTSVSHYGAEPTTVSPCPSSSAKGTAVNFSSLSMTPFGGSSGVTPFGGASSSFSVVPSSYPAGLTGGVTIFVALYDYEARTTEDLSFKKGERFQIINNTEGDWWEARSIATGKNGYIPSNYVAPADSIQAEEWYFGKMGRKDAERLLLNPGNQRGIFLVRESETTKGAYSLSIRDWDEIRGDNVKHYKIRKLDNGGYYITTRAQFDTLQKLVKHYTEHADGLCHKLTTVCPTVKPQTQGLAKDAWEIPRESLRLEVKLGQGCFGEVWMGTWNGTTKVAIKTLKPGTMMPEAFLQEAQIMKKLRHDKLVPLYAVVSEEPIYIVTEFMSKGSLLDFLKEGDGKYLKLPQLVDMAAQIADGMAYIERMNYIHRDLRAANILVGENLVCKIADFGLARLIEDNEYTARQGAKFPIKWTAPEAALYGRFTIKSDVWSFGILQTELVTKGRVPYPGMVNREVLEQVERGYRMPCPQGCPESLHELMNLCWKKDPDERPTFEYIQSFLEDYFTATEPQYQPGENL
How it was run: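 Inhibition was expressed against a compound-free control to give IC50, using TR-FRET read-out (Eu-cryptate anti-pTyr antibody, streptavidin-XL665).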

[3] = biological target: T3, human Src enzyme (Homo sapiens, UniProt P12931); assay: Src enzyme inhibitory activity (time-resolved fluorometry, biotinylated peptide phosphorylation); conditions: biotinylated peptide phosphorylation, read-out: SRC_IC50
T3 construct: purchased Carna Biosciences, Inc. 08-173
T3 sequence (P12931 whole entry): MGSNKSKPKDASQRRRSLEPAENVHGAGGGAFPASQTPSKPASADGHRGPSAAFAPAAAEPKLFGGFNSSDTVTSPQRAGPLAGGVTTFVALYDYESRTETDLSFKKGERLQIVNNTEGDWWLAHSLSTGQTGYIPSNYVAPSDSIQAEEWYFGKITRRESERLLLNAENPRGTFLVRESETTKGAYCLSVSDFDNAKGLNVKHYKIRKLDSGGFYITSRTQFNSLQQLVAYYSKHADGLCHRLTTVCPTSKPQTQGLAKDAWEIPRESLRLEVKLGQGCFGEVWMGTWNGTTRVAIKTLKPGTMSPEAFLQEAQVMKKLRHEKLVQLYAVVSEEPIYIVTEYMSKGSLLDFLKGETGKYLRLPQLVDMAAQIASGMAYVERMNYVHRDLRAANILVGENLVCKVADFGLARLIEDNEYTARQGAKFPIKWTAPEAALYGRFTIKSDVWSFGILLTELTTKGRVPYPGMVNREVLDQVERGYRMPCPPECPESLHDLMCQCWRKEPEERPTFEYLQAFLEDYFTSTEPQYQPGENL
How it was run: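 Compounds were tested for blocking tyrosine phosphorylation of a biotinylated peptide substrate by recombinant human Src. Phosphorylated product was quantified by time-resolved fluorometry using europium cryptate and XL665 conjugates, and IC50 was calculated against the compound-free control.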

T1 sequence (P06239 whole entry): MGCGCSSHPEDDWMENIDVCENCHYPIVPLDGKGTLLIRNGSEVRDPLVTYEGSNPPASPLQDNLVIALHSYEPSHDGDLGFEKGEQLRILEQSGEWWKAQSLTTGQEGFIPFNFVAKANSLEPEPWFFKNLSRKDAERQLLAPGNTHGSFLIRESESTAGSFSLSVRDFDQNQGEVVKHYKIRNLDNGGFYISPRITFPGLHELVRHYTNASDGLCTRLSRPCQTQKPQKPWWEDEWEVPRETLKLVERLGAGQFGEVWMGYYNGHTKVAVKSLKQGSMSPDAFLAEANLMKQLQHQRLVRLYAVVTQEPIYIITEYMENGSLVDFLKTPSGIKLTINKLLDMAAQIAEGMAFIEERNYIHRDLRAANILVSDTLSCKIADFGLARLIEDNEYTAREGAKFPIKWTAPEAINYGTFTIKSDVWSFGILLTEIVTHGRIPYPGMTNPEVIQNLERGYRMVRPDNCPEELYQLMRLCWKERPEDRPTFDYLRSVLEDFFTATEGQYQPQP

Row | IC50 [1] [nM] | IC50 [2] [nM] | IC50 [3] [nM] | Compound
1 | 220 | 5.6 | 790 | COc1cccc(S(=O)(=O)Nc2cc3[nH]c(C(=O)c4cnn(-c5cnc(Oc6ccccc6F)cc5C)c4N)cc3cc2OCC(F)F)c1 [Example 5-1-419, N-[2-[5-amino-1-[6-(2-fluorophenoxy)-4-methylpyridin-3-yl]pyrazole-4-carbonyl]-5-(2,2-difluoroethoxy)-1H-indol-6-yl]-3-methoxybenzenesulfonamide]
2 | 160 | 6.3 | 600 | Cc1cc(Oc2ccccc2F)ncc1-n1ncc(C(=O)c2cc3cc(OCC(F)F)c(NS(=O)(=O)c4cc(F)cc(F)c4)cc3[nH]2)c1N [Example 5-1-420, N-[2-[5-amino-1-[6-(2-fluorophenoxy)-4-methylpyridin-3-yl]pyrazole-4-carbonyl]-5-(2,2-difluoroethoxy)-1H-indol-6-yl]-3,5-difluorobenzenesulfonamide]
3 | 17 | 1.1 | 84 | Cc1cc(Oc2ccccc2F)ncc1-n1ncc(C(=O)c2cc3cc(F)c(N4CC(C)(C)NS4(=O)=O)cc3[nH]2)c1N [Example 5-1-421, [5-amino-1-[6-(2-fluorophenoxy)-4-methylpyridin-3-yl]pyrazol-4-yl]-[6-(4,4-dimethyl-1,1-dioxo-1,2,5-thiadiazolidin-2-yl)-5-fluoro-1H-indol-2-yl]methanone]
4 | 91 | 1.7 | 250 | Cc1cc(Oc2ccccc2F)ncc1-n1ncc(C(=O)c2cc3cc(OCC(F)F)c(NS(=O)(=O)c4cccc(C#N)c4)cc3[nH]2)c1N [Example 5-1-422, N-[2-[5-amino-1-[6-(2-fluoropheooxy)-4-methylpyridin-3-yl]pyrazole-4-carbonyl]-5-(2,2-difluoroethoxy)-1H-indol-6-yl]-3-cyanobenzenesulfonamide]
5 | 61 | 4 | 190 | Cc1cc(Oc2ccccc2F)ccc1-n1ncc(C(=O)c2cc3cc(OC(F)F)c(N4CC5(CCCC5)NS4(=O)=O)cc3[nH]2)c1N [Example 5-1-423, [5-amino-1-[4-(2-fluorophenoxy)-2-methylphenyl]pyrazol-4-yl]-[5-(difluoromethoxy)-6-(2,2-dioxo-2λ6-thia-1,3-diazaspiro[4.4]nonan-3-yl)-1H-indol-2-yl]methanone]
6 | 200 | 5.6 | 480 | Cc1cc(Oc2ccccc2F)ncc1-n1ncc(C(=O)c2cc3cc(OCC(F)F)c(NS(=O)(=O)c4cccc(Cl)c4)cc3[nH]2)c1N [Example 5-1-424, N-[2-[5-amino-1-[6-(2-fluorophenoxy)-4-methylpyridin-3-yl]pyrazole-4-carbonyl]-5-(2,2-difluoroethoxy)-1H-indol-6-yl]-3-chlorobenzenesulfonamide]
7 | 39 | 1.5 | 95 | Cc1cc(Oc2ccccc2F)ncc1-n1ncc(C(=O)c2cc3cc(OCC(F)F)c(NS(=O)(=O)c4cccnc4)cc3[nH]2)c1N [Example 5-1-425, N-[2-[5-amino-1-[6-(2-fluorophenoxy)-4-methylpyridin-3-yl]pyrazole-4-carbonyl]-5-(2,2-difluoroethoxy)-1H-indol-6-yl]pyridine-3-sulfonamide]
8 | 36 | 2 | 95 | Cc1cc(Oc2ccccc2F)ccc1-n1ncc(C(=O)c2cc3cc(C4CC4)c(NS(=O)(=O)CCCF)cc3[nH]2)c1N [Example 5-1-426, N-[2-[5-amino-1-[4-(2-fluorophenoxy)-2-methylphenyl]pyrazole-4-carbonyl]-5-cyclopropyl-1H-indol-6-yl]-3-fluoropropane-1-sulfonamide]
9 | 43 | 3.8 | 170 | Cc1cc(Oc2c(F)cccc2F)ncc1-n1ncc(C(=O)c2cc3cc(C4CC4)c(NS(=O)(=O)CCCF)cc3[nH]2)c1N [Example 5-1-427, N-[2-[5-amino-1-[6-(2,6-difluorophenoxy)-4-methylpyridin-3-yl]pyrazole-4-carbonyl]-5-cyclopropyl-1H-indol-6-yl]-3-fluoropropane-1-sulfonamide]
10 | 46 | 3.1 | 170 | Cc1cc(Oc2ccccc2F)ncc1-n1ncc(C(=O)c2cc3cc(C4CC4)c(NS(=O)(=O)CCCF)cc3[nH]2)c1N [Example 5-1-428, N-[2-[5-amino-1-[6-(2-fluorophenoxy)-4-methylpyridin-3-yl]pyrazole-4-carbonyl]-5-cyolopropyl-1H-indol-6-yl]-3-fluoropropane-1-sulfonamide]
11 | 25 | 7.5 | 190 | Cc1cc2cc(C(=O)c3cnn(-c4cnc(Oc5c(F)cccc5F)cc4C)c3N)[nH]c2cc1N1C(=O)NC(C)(C(F)(F)F)C1=O (stereo not drawn) [Example 5-1-429, 3-[2-[5-amino-1-[6-(2,6-difluorophenoxy)-4-methylpyridin-3-yl]pyrazole-4-carbonyl]-5-methyl-1H-indol-6-yl]-5-methyl-5-(trlfluoromethyl)imidazolidine-2,4-dione]
12 | 37 | 8.4 | 280 | Cc1cc(Oc2c(F)cccc2F)ncc1-n1ncc(C(=O)c2cc3cc(F)c(N4C(=O)N[C@@H](Cc5ccccc5)C4=O)cc3[nH]2)c1N [Example 5-1-430, (5S)-3-[2-[5-amino-1-[6-(2,6-difluorophenoxy)-4-methylpyridin-3-yl]pyrazole-4-carbonyl]-5-fluoro-1H-indol-6-yl]-5-benzylimidazolidine-2,4-dione]
13 | 20 | 4.9 | 190 | Cc1cc(Oc2c(F)cccc2F)ncc1-n1ncc(C(=O)c2cc3cc(F)c(N4C(=O)N[C@@H](C(C)C)C4=O)cc3[nH]2)c1N [Example 5-1-431, (5S)-3-[2-[5-amino-1-[6-(2,6-difluorophenoxy)-4-methylpyridin-3-yl]pyrazole-4-carbonyl]-5-fluoro-1H-indol-6-yl]-5-propan-2-ylimidazolidine-2,4-dione]
14 | 7.7 | 3.8 | 96 | Cc1cc(Oc2c(F)cccc2F)ncc1-n1ncc(C(=O)c2cc3cc(F)c(N4C(=O)[C@@H]5CCCN5C4=O)cc3[nH]2)c1N [Example 5-1-432, (7aS)-2-[2-[5-amino-1-[6-(2,6-difluorophenoxy)-4-methylpyridin-3-yl]pyrazole-4-carbonyl]-5-fluoro-1H-indol-6-yl]-5,6,7,7a-tetrahydropyrrolo[1,2-c]imidazole-1,3-dione]
15 | 4.8 | 1.2 | 59 | Cc1cc(Oc2c(F)cccc2F)ncc1-n1ncc(C(=O)c2cc3cc(F)c(N4C(=O)[C@@H]5C[C@@H](O)CN5C4=O)cc3[nH]2)c1N [Example 5-1-433, (6R,7aS)-2-[2-[5-amino-1-[6-(2,6-difluorophenoxy)-4-methylpyridin-3-yl]pyrazole-4-carbonyl]-5-fluoro-1H-indol-6-yl]-6-hydroxy-5,6,7,7a-tetrahydropyrrolo[1,2-c]imidazole-1,3-dione]
16 | 4.1 | 0.44 | 15 | Cc1cc2cc(C(=O)c3cnn(-c4ccc(Oc5ccccc5F)cc4C)c3N)[nH]c2cc1N1C(=O)CNC1=O [Example 5-1-434, 3-[2-[5-amino-1-[4-(2-fluorophenoxy)-2-methylphenyl]pyrazole-4-carbonyl]-5-methyl-1H-indol-6-yl]imidazolidine-2,4-dione]
17 | 21 | 2 | 120 | Cc1cc2cc(C(=O)c3cnn(-c4ccc(Oc5ccccc5F)cc4C)c3N)[nH]c2cc1N1C(=O)NC(C)(C(F)(F)F)C1=O (stereo not drawn) [Example 5-1-435, 3-[2-[5-amino-1-[4-(2-fluorophenoxy)-2-methylphenyl]pyrazole-4-carbonyl]-5-methyl-1H-indol-6-yl]-5-methyl-5-(trifluoromethyl) imidazolidine-2,4-dione]
18 | 35 | 1.7 | 230 | Cc1cc(Oc2ccccc2F)ccc1-n1ncc(C(=O)c2cc3cc(F)c(N4C(=O)N[C@@H](Cc5ccccc5)C4=O)cc3[nH]2)c1N [Example 5-1-436, (5S)-3-[2-[5-amino-1-[4-(2-fluorophenoxy)-2-methylphenyl]pyrazole-4-carbonyl]-5-fluoro-1H-indol-6-yl]-5-benzylimidazolidine-2,4-dione]
19 | 7.8 | 0.79 | 40 | Cc1cc(Oc2ccccc2F)ccc1-n1ncc(C(=O)c2cc3cc(F)c(N4C(=O)NC5(CCOCC5)C4=O)cc3[nH]2)c1N [Example 5-1-437, 3-[2-[5-amino-1-[4-(2-fluorophenoxy)-2-methylphenyl]pyrazole-4-carbonyl]-5-fluoro-1H-indol-6-yl]-8-oxa-1,3-diazaspiro[4.5]decane-2,4-dione]
20 | 15 | 1.9 | 120 | Cc1cc(Oc2ccccc2F)ccc1-n1ncc(C(=O)c2cc3cc(F)c(N4C(=O)NC5(CCCC5)C4=O)cc3[nH]2)c1N [Example 5-1-438, 3-[2-[5-amino-1-[4-(2-fluorophenoxy)-2-methylphenyl]pyrazolo-4-carbonyl]-5-fluoro-1H-indol-6-yl]-1,3-diazaspiro[4.4]nonane-2,4-dione]
21 | 310 | 7.3 | 690 | COc1cccc(S(=O)(=O)Nc2cc3[nH]c(C(=O)c4cnn(-c5cnc(Oc6ccccc6F)cc5C)c4N)cc3cc2C)c1 [Example 5-1-439, N-[2-[5-amino-1-[6-(2-fluorophenoxy)-4-methylpyridin-3-yl]pyrazole-4-carbonyl]-5-methyl-1H-indol-6-yl]-3-methoxybenzenesulfonamide]
